Assay results reported in patent US5827837A, “Polyanion anti-inflammatory agents” (priority 1996, dated 1998).
Like-named read-outs stand apart in the source and are kept apart here.

How the values were obtained:
[1] = biological target: T1, P-selectin-lg fusion protein (Homo sapiens, UniProt P16109); experiment: LS 180 colon cancer cell adhesion to immobilized P-selectin-Ig; assay type: cell-based
T1 construct: Each selectin-lg contains the lectin domain, epidermal growth factor domain, and one (L-selectin-lg), two (P-selectin-lg) or six (E-selectin-lg) complement regulatory repeats; made in house
Procedure: (§1) Cell adhesion assays on immobilized selectin-lg were performed essentially as described (Nelson, R. M., et al., J. Clin. Invest., 91:1157, 1993; Nelson, R. M., et al., Symposia on Quant. Biol., 57:271, 1992). Briefly, Nunclon Terasaki Microwell plates were coated overnight with 5 μl/well of a 5 μg/ml solution of protein A (Chemicon, Temecula, Calif.) in 50 mM carbonate buffer, pH 9.5. Protein-A-coated plates were washed with Dulbecco's phosphate buffered saline (PBS), incubated for 1 hour with L-, P-, or E-selectin-lg fusion proteins in PBS (5-20 μg/ml), washed again, and blocked with PBS containing 1% human serum albumin (HSA). To measure inhibition of cell adhesion, 5 μl/well of lnsP6 in PBS was added to the selectin-lg coated plates and incubated for 30 min at […]. LS 180 cells were harvested by brief trypsinization and resuspended at 1.5×10^6 cells/ml in PBS containing 1% HSA; five μl/well of suspension was added, and incubated for 30 min at 4° C. After washing to remove unbound cells, adherent cells were fixed with glutaraldehyde (2.5% in PBS) and counted. Symbols and error bars represent mean number of adherent cells/mm^2 ±s.e.m., counted in quadruplicate wells in a single experiment representative of three. No LS 180 cell adhesion was detected on plates coated with protein A alone, or on plates coated with protein A-captured CD8-lg fusion protein.
(§2) LS 180 cells (ATCC, Rockville, Md.) were added to cell culture wells containing protein A-captured selectin-lg fusion proteins and incubated for 30 min at 4° C. to allow adhesion. The plates were washed to remove unbound cells and adherent cells were counted microscopically. To determine adhesion blocking activity, InsP6 at the indicated concentrations was added to selectin-lg-coated wells 30 min prior to addition of LS 180 cells.

[2] = biological target: T2, L-selectin-lg fusion protein (Homo sapiens, UniProt P14151); experiment: Competition ELISA: binding of L-selectin-Ig to immobilized BSA-sLe^x
T2 construct: Each selectin-lg contains the lectin domain, epidermal growth factor domain, and one (L-selectin-lg), two (P-selectin-lg) or six (E-selectin-lg) complement regulatory repeats; made in house
Excerpt: Selectin-lg fusion proteins are recombinant chimeric molecules containing extracellular regions of selectins coupled to the hinge, CH2, and CH3 regions of human IgG1 (Aruffo, A., et al., Cell, 67:35, 1991; Walz, G., et al., Science, 250:1132, 1990). Each selectin-lg contains the lectin domain, epidermal growth factor domain, and one (L-selectin-lg), two (P-selectin-lg) or six (E-selectin-lg) complement regulatory repeats of the parent molecules. DNAs encoding selectin-Ig inserted in pCDM7 allowed transient expression of recombinant proteins in COS cells as previously described (Seed, B., et al., Proc. Natl. Acad. Sci., U.S.A., 84:3365, 1987; Aruffo, A., Current Protocols In Molecular Biology, eds. Ausubel, F. M., et al, 16:13.1, Greene Publishing Associates and Wiley-lnterscience, New York, N.Y., 1992). These DNAs were also ligated into pNUT (Palmiter, R. D., et al, Cell, 50:435, 1987) for amplification and stable expression in BHK cells. The fusion proteins were affinity purified from culture media using protein A (Pierce Chemical Company, Rockford, Ill.) or protein G (Pharmacia, Piscataway, N.J.) Sepharose, as previously described (Aruffo, A., et al., Cell, 67:35, 1991; Aruffo, A., Current Protocols In Molecular Biology, eds. Ausubel, F. M., et al, supra, 1992). Competition binding ELISAs using P- and E-selectin-lg were performed essentially as described (Nelson, R. M., et al., J. Clin. […] Selectin concentrations were from 10 to 30 nM. […] To increase L-selectin binding, an assay similar to that previously described was used (Foxall, C., et al., J. Cell Biol., 117:895, 1992), in which the L-selectin-lg (10-20 nM) was allowed to form aggregates with HRP-conjugated anti-lg antibody for 30 minutes prior to addition of inositols and incubation on the BSA-sLe^x -coated plate. IC50 values were calculated by fitting binding data to the equation: fraction of maximal binding=IC50 […] using nonlinear least squares analysis software (Origin, Microcal Inc, Northampton, Mass.). InsP6 (dodecasodium salt), InsS6 (hexapotassium salt), myo-inositol 1 monophosphate (cyclohexylammonium salt), and myo-inositol were from Sigma Chemical Company (St. Louis, Mo.). Stock solutions were prepared daily in 0.9% NaCl and sterilized by 0.22 μm filtration. InsP6 solutions were adjusted at pH 7.4 with HCl.
L-, P-, or E-selectin-lg fusion proteins were incubated for 2-3 hours on microtiter plates coated with the neoglycoprotein BSA-sLe^x, the plates washed, and bound selectin-lg was detected using a peroxidase-conjugated antibody directed against the lg portion and a chromogenic substrate. To determine blocking activity, solution-phase lnsP6 (.circle-solid.), InsS6 (.largecircle.), or inositol (.box-solid.) at the indicated concentrations were added to the solutions containing selectin-Ig fusion proteins prior to transfer to microtiter plates (competition ELISA).

[3] = biological target: T2, L-selectin-lg fusion protein; experiment: LS 180 colon cancer cell adhesion to immobilized L-selectin-Ig; assay type: cell-based
Procedure: as §1, §2

SMILES	LS 180 adhesion to P-selectin-Ig [1]	IC50 [2] [µM]	blocking of L-selectin-Ig at reduced Ca^2+ ([2]; Ca^2+ reduced to 0.15 mM)	LS 180 adhesion to L-selectin-Ig [3]	blocking of L-selectin-Ig binding ([2]; BSA-sLe^x competition ELISA)	inhibition at 4000 µM ([1]; LS180, 4 mM, single experiment) [%]	IC50 ([2]; BSA-sLe^x competition ELISA, read-out: IC50, L-selectin binding) [µM]	inhibition at 4000 µM ([3]; LS180, 4 mM, single experiment) [%]
O=P(O)(O)O[C@H]1[C@H](OP(=O)(O)O)[C@@H](OP(=O)(O)O)[C@H](OP(=O)(O)O)[C@@H](OP(=O)(O)O)[C@H]1OP(=O)(O)O [InsP6, myo-inositol hexakisphosphate]	blocked the adhesion of LS 180 cells	3.1 ± 0.5	not enhanced	blocked the adhesion of LS 180 cells				
O[C@H]1[C@H](O)[C@@H](O)[C@H](O)[C@@H](O)[C@H]1O [myo-inositol, reference compound]	inactive at concentrations up to 5 mM			inactive at concentrations up to 5 mM	not myo-isositol, blocked binding			
O=S(=O)(O)O[C@H]1[C@H](OS(=O)(=O)O)[C@@H](OS(=O)(=O)O)[C@H](OS(=O)(=O)O)[C@@H](OS(=O)(=O)O)[C@H]1OS(=O)(=O)O [InsS6, myo-inositol hexakissulfate]						~45	210 ± 110	~45
